Molecular target: T1, α-2 adrenoreceptor (Homo sapiens, UniProt P08913)
T1 construct: purchased Eurofins/DiscoverX SafetyScan47 panel
T1 sequence (P08913 1-465): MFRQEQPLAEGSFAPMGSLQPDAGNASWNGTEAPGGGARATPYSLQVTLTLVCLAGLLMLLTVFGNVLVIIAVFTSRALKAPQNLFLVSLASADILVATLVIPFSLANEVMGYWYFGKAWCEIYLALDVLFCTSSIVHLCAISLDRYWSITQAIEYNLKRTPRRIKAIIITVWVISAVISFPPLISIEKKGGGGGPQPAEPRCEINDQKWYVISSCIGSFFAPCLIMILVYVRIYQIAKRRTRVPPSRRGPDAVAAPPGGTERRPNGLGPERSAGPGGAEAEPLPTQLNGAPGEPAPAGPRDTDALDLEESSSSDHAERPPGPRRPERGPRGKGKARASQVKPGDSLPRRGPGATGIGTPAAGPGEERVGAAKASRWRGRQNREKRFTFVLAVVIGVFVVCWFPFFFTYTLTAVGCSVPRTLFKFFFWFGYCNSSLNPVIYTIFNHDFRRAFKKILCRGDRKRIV
Test: Eurofins/DiscoverX SafetyScan47 panel, α-2 adrenoreceptor agonist activity
Type: cell-based
Settings: compared to UK 14304 control; between 3 nM and 6.7 µM
Description: Given the associations between increased histidine betaine and improved health in the dolphin model, it was hypothesized that histidine betaine has direct therapeutic activities. To test this hypothesis, the Eurofins/DiscoverX SafetyScan47 panel was used to test histidine betaine at 10 concentrations for agonist and antagonist activities across 76 assays and 47 genes and targets that are relevant to compound safety and mechanisms of action, including G-protein coupled receptors, kinases, transporters, ion channels, nuclear receptors, and non-kinase enzymes. Detailed methods used for these assays and assay readouts are available from Eurofins/DiscoverX.
Of 47 pharmacological targets tested for activity with histidine betaine, the following had partial activities, achieving at least 15% that of internal positive controls between 3 nM and 6.7 µM: α-2 adrenoreceptor agonist (maximum activity = 27% compared to UK 14304 control), and cyclooxygenase-1 (COX1) inhibitor (maximum activity = 23% compared to indomethacin control) (FIG. 4).

Question: With `C[N+](C)(C)C(Cc1cnc[nH]1)C(=O)[O-]` (stereo not shown) [histidine betaine] as the compound, how does the “maximum activity, α-2 adrenoreceptor agonist” value read?
Answer: 27%
